The source made the active and inactive calls. The calls are words filed in the database; no cut-off is given here.
Tests used:
Histone deacetylase 8 = biological target: T1, Histone deacetylase 8 (Homo sapiens, UniProt Q9BY41); assay: Binding affinity to HDAC8 (unknown origin) by biolayer interferometry assay
T1 sequence (Q9BY41 whole entry): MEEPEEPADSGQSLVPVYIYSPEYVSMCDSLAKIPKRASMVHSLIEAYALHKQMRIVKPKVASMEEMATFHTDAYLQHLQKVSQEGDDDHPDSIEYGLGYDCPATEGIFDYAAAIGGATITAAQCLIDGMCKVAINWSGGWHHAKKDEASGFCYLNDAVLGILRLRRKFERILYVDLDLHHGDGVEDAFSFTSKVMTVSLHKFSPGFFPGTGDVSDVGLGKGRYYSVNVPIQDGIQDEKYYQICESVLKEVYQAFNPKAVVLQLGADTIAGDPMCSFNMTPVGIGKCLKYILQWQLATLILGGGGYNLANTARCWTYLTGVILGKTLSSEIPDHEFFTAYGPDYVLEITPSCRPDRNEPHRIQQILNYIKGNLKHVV

Histone deacetylase 1 = Histone deacetylase 1 (Homo sapiens, UniProt Q13547); assay: Binding affinity to HDAC1 (unknown origin) by biolayer interferometry assay
[1] = biological target: T2, Protein deacetylase HDAC6 (Homo sapiens, UniProt Q9UBN7); assay: Binding affinity to HDAC6 (unknown origin) by biolayer interferometry assay
T2 sequence (Q9UBN7 whole entry): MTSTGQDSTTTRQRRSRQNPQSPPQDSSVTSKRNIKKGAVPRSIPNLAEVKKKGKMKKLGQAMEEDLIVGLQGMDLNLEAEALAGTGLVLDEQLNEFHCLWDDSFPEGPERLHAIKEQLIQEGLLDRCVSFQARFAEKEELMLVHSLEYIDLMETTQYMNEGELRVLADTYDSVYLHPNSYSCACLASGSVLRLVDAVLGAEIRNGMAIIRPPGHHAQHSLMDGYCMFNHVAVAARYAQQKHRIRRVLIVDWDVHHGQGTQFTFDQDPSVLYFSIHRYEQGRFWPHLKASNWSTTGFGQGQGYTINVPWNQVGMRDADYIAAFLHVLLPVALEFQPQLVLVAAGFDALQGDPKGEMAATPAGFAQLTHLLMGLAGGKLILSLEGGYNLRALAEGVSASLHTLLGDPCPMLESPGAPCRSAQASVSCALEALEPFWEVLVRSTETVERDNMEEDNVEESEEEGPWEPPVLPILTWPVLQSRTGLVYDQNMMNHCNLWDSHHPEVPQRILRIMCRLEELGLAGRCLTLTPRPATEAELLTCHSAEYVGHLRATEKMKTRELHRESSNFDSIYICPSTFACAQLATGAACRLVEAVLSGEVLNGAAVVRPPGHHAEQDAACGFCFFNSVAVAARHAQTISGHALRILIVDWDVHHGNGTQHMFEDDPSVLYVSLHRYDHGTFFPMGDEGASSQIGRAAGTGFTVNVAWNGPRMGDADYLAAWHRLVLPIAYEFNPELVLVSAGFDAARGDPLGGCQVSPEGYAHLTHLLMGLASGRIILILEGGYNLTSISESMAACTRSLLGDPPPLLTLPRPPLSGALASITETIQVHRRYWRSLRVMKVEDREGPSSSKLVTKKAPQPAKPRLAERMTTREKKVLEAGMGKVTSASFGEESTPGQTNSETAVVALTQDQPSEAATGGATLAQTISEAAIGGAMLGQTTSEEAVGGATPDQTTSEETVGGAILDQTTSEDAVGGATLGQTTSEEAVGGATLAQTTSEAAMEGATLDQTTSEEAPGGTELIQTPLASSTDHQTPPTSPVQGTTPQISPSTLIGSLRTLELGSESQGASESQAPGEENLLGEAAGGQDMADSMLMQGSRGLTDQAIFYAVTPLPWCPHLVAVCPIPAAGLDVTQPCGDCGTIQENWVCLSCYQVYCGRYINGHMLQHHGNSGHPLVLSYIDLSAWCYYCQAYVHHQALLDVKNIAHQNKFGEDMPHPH

MDA-MB-231 [2] = assay: Antiproliferative activity against human MDA-MB-231 cells by MTT assay; format: functional, cell-based
SH-SY5Y [3] = assay: Antiproliferative activity against human SH-SY5Y cells by MTT assay; format: functional, cell-based
MDA-MB-231 [4] = assay: Antiproliferative activity against human MDA-MB-231 cells within 20 uM by MTT assay; format: toxicity, cell-based; conditions: mda-mb-231, 20 µM
SH-SY5Y [5] = assay: Antiproliferative activity against human SH-SY5Y cells within 20 uM by MTT assay; format: toxicity, cell-based
[6] = biological target: T3, Histone deacetylase 8 (Homo sapiens) (UniProt Q9BY41); assay: Binding affinity to HDAC8 in human SH-SY5Y cells assessed as increase in fluorescence intensity at 10 uM after 30 mins by confocal fluorescence microscopic analysis; format: cell-based
T3 sequence (whole entry): T1 sequence (Q9BY41 whole entry)

[7] = biological target: T3, Histone deacetylase 8 (Homo sapiens); assay: Binding affinity to HDAC8 in human SH-SY5Y cells assessed as increase in fluorescence intensity at 5 to 10 uM incubated for 30 mins by flow cytometry analysis; format: cell-based; conditions: dose 5-10 µM
[8] = biological target: T3, Histone deacetylase 8 (Homo sapiens); assay: Binding affinity to HDAC8 in human SH-SY5Y cells xenografted with BALB/c mouse assessed as increase in fluorescence intensity in tumor tissue at 20 uM after 30 mins by fluorescence imaging analysis

Chain of Histone deacetylase 1 (Q13547 whole entry): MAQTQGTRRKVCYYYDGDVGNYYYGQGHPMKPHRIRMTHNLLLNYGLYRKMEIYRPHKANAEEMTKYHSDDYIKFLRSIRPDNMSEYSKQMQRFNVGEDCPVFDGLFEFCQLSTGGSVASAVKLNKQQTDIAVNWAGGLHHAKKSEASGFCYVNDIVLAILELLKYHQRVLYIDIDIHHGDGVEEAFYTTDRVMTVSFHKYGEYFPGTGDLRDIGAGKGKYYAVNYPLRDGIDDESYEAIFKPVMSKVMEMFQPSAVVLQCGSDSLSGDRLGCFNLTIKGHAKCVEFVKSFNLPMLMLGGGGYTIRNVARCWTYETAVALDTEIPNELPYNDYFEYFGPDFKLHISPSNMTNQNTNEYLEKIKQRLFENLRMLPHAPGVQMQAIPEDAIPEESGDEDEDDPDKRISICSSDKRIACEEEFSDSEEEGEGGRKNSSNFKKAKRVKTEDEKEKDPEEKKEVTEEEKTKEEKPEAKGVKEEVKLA

Kd (Histone deacetylase 8) | Kd (Histone deacetylase 1) | Kd [1] | IC50 (MDA-MB-231 [2]) | IC50 (SH-SY5Y [3]) | Activity [6] | Activity [7] | Activity [8] | Structure (SMILES) | Activity (MDA-MB-231 [4]) | Activity (SH-SY5Y [5])
3.57 µM | 20.6 µM | 20.1 µM | 18 µM | 8.56 µM | – | – | – | COc1ccc(Cn2ccc3ccc(C(=O)NO)cc32)cc1C(=O)NCCCNc1ccc(S(=O)(=O)N(C)C)c2nonc12 | – | –
8.89 µM | 79.4 µM | 137 µM | 33 µM | 8.48 µM | Active | Active | Active | COc1ccc(Cn2ccc3ccc(C(=O)NO)cc32)cc1C(=O)NCCCCNc1ccc(S(=O)(=O)N(C)C)c2nonc12 | Non-Toxic | Non-Toxic
– | – | – | 16.1 µM | 2.38 µM | – | – | – | COc1ccc(Cn2ccc3ccc(C(=O)NO)cc32)cc1 | – | –
5.37 µM | 16.2 µM | 29.4 µM | 16.1 µM | 9.93 µM | – | – | – | COc1ccc(Cn2ccc3ccc(C(=O)NO)cc32)cc1C(=O)NCCNc1ccc(S(=O)(=O)N(C)C)c2nonc12 | – | –
